Measured values published in US20220251109A1, “OXAAZAQUINAZOLINE-7(8H)-KETONE COMPOUND, PREPARATION METHOD THEREFOR AND PHARMACEUTICAL APPLICATION THEREOF” (GENFLEET THERAPEUTICS (SHANGHAI) INC., priority 2019, published 2022).
pIC50: −log10 of the molar value. Where two headings read alike, the source gives them in different places.

What was measured:
Assay type in all cases: cell-based, human
[1] = system: NCI-H358 cells (Kras G12C mutation); assay: Cell proliferation inhibition experiment, 3D model, CellTiter-Glo (NCI-H358); conditions: NCI-H358, 3D sphere plate, 5 days, 2% FBS
Protocol: (§1) NCI-H358 was a human non-small cell lung cancer cell line with Kras G12C mutation, cultured in 10% FBS RPMI-1640 medium; A549 was a human lung adenocarcinoma cell line with Kras G12S mutation, cultured in 10% FBS F-12K medium. The cells in the logarithmic growth phase was taken, digested with trypsin EDTA, collected and counted, and H358 was adjusted to 1.8E4 cells/ml using 2% FBS RPMI-1640 medium, and A549 was adjusted to 8.9E3 cells/ml using 2% FBS F-12K medium; 800 (45 μl) H358 or 400 (45 μl) A549 cells were seeded in a 384-well sphere plate respectively, cultured overnight to establish a 3D cell model. DMSO was used to prepare 1000× compound 3.16-fold gradient concentration stock solution, and 2% FBS medium was used to dilute 100-fold to 10× compound stock solution. On the second day after cell seeding, 5 μl 10× compound stock solution was added to each cell culture well, the final concentration was 1×, and DMSO content was 0.1%. DMSO was used as the experimental control (control) and 2% FBS medium as the blank control (blank). After the compound and cells were added and cultured for 5 days, 25 μl CellTiter-Glo working solution was added to each well, mixed at 400 rpm and incubated for 30 minutes. After 30 minutes at room temperature, 40 μl of the mixture was transferred to a 384-well plate with a non-transparent white bottom, the luminescence chemiluminescence value was read, and the cells proliferation inhibition rate IR (%)=(RLU control-RLU compound)/(RLU control-RLU blank)×100% was calculated, Prism 6 four-parameter method was used to fit the compound's gradient dilution concentration and the corresponding cell proliferation inhibition rate, and the IC50 value was calculate.

[2] = system: A549 cells (Kras G12S mutation); assay: Cell proliferation inhibition experiment, 3D model, CellTiter-Glo (A549); conditions: Homo sapiens, A549, 120 h, A549, 3D sphere plate, 5 days, 2% FBS
Protocol: as §1

[3] = system: MIA PaCa-2 cells (Kras G12C mutation); assay: Cell proliferation inhibition experiment, 3D model, CellTiter-Glo (MIA PaCa-2); conditions: MIA PaCa-2, 3D sphere plate, 5 days, read-out: MIA-PaCa2 IC50
Protocol: MIA PaCa2 was a human pancreatic cancer cell line with Kras G12C mutation, cultured in 10% FBS+2.5% Horse serum DMEM medium; A549 was a human lung adenocarcinoma cell line with Kras G12S mutation, cultured in 10% FBS F-12K medium. The cells in the logarithmic growth phase were taken, digested with enzyme EDTA, collected, counted and 200 MIA PaCa-2 or 400 A549 cells were seeded in a 384-well sphere plate respectively, cultured overnight to establish a 3D cell model. DMSO was used to prepare 1000× compound 3.16-fold gradient concentration stock solution, and medium was used to dilute 100-fold to 10× compound stock solution. On the second day after cell seeding, 10× compound stock solution was added to each cell culture well, the final concentration was 1×, and DMSO content was 0.1%. DMSO was used as an experimental control (control), medium as the blank control (blank). After the compound and cells were added and cultured for 5 days, 30 μl CellTiter-Glo working solution was added to each well, mixed and incubated for 30 minutes. After 30 minutes at room temperature, 40 μl of the mixture was transferred to a 384-well plate with a non-transparent white bottom, the luminescence chemiluminescence value was read, and the cells proliferation inhibition rate IR (%)=(RLU control-RLU compound)/(RLU control-RLU blank)×100% was calculated, XLFit four-parameter method was used to fit the compound's gradient dilution concentration and the corresponding cell proliferation inhibition rate, and the IC50 value was calculate.

[4] = Homo sapiens, MIA PaCa-2, 120 h

SMILES	pIC50 ([1]; Homo sapiens, NCI-H358, 120 h)	pIC50 [2]	pIC50 [3, 4]	pIC50 [1]	pIC50 [3]
C=CC(=O)N1CCN2c3nc(=O)n(-c4c(C)ccnc4C(C)C)c4cc(-c5c(O)cccc5F)c(Cl)c(c34)OC[C@@H]2C1 [Compound Z31]	7.33	4.91	7.60	–	–
C=CC(=O)N1CCN2c3nc(=O)n(-c4c(C)ccnc4C(C)C)c4cc(-c5cccnc5N)c(Cl)c(c34)OC[C@H]2C1 [Compound Z41]	6.50	< 5.00	6.46	–	–
C=CC(=O)N1CCN2c3nc(=O)n(-c4c(C)ccnc4C(C)C)c4nc(-c5ccccc5F)c(Cl)c(c34)OC[C@@H]2C1 [Compound Z46]	8.30	< 5.00	7.70	–	–
C=CC(=O)N1CCN2c3nc(=O)n(-c4c(C)ccnc4C(C)C)c4nc(-c5cccc(F)c5F)c(Cl)c(c34)OC[C@@H]2C1 [Compound Z47]	–	< 5.00	–	8.52	8.05
C=CC(=O)N1CCN2c3nc(=O)n(-c4c(C)ccnc4C(C)C)c4nc(-c5c(F)ccc(Cl)c5O)c(Cl)c(c34)OC[C@@H]2C1 [Compound Z52, (5 aS)-7-acryloyl-3-chloro-2-(3-chloro-6-fluoro-2-hydroxyphenyl)-12-(2-isopropyl-4-methylpyridin-3-yl)-5,5a,6,7,8,9-hexahydro-4-oxo-1,7,9a,10,12-pentazabenzo[4,5]cyclohepta[1,2,3-de]naphthalen-11 (12H)-one]	8.40	< 5.00	7.64	–	–
C=CC(=O)N1CCN2c3nc(=O)n(-c4c(C)ccnc4C(C)C)c4nc(-c5cc(F)ccc5O)c(Cl)c(c34)OC[C@@H]2C1 [Compound Z55]	8.05	< 5.00	7.59	–	–
C=CC(=O)N1CCN2c3nc(=O)n(-c4c(C)ccnc4C(C)C)c4nc(-c5cccc(C(F)(F)F)c5F)c(Cl)c(c34)OC[C@@H]2C1 [Compound Z57]	–	< 5.00	7.66	8.30	–
C=CC(=O)N1CCN2c3nc(=O)n(-c4c(C)ccnc4C(C)C)c4nc(-c5cc(Cl)ccc5F)c(Cl)c(c34)OC[C@@H]2C1 [Compound Z59]	8.22	< 5.00	7.59	–	–
C=CC(=O)N1CCN2c3nc(=O)n(-c4c(C)ccnc4C(C)C)c4nc(-c5ccccc5OC(F)(F)F)c(Cl)c(c34)OC[C@@H]2C1 [Compound Z64]	8.15	< 5.00	8.05	–	–
C=CC(=O)N1CCN2c3nc(=O)n(-c4c(C)ccnc4C(C)C)c4nc(-c5c(F)cccc5F)c(Cl)c(c34)OC[C@@H]2C1 [Compound Z68]	8.52	< 5.00	8.05	–	–
C=CC(=O)N1CCN2c3nc(=O)n(-c4c(C(C)C)ncnc4C(C)C)c4nc(-c5c(O)cccc5F)c(F)c(c34)OC[C@H]2C1 [Compound Z98]	9.00	< 5.00	8.70	–	–
C=CC(=O)N1CCN2c3nc(=O)n(-c4c(C)ncnc4C4CC4)c4nc(-c5c(O)cccc5F)c(Cl)c(c34)OC[C@H]2C1 [Compound Z103]	8.15	< 4.52	7.74	–	–
C=CC(=O)N1CCN2c3nc(=O)n(-c4c(C)ncnc4C4CC4)c4nc(-c5cccc(F)c5F)c(Cl)c(c34)OC[C@H]2C1 [Compound Z106]	8.40	< 4.52	8.15	–	–
